The results in this text go back to patent publication US9986723B2, “Screen and use of therapeutics for pancreatic ductal adenocarcinoma” (The Board of Regents of the University of Texas System, priority 2014, dated 2018).

The subject of one assay is Panc-1 tumors. In words: Low dose warfarin in drinking water, orthotopic human tumor xenograft. The format is in vivo, mouse. The method, then: (FIG. 23A) Primary tumor burden after therapy with warfarin. Therapy was initiated when implanted tumors were visible by ultrasound (˜10 mm^3) and consisted of control (normal drinking water) or warfarin, administered in the drinking water at 0.5 mg/L (immunocompetent mice: Pan02 (n=4, control; 3, warfarin), KIC (n=10, control; 8, warfarin)) or 1 mg/L (Panc-1 (n=10, control; 8, warfarin), AsPC-1 (n=8, control; 6, warfarin), Capan-1 (n=10, control; 7, warfarin)) and continued for 2-4 weeks until control mice were moribund. Therapy in KIC mice was initiated at 3 weeks of age and continued for 4 weeks. (FIG. 23B) Metastases were determined grossly upon sacrifice and confirmed by histological evaluation of the liver. […] Incidence of metastasis is also indicated. […] Tumor volume determined by serial ultrasound. […] Therapy with mAb 10C9 (250 μg 2×/week) was initiated when tumors were established as above and persisted for 4 weeks. […] Error bars indicate s.e.m.
(FIG. 24A) HEK293 cells engineered to stably express recombinant Gas6 were grown in the presence of Vitamin K or Vitamin K+warfarin. Gas6 levels and γ-carboxylation were assayed by immunoblotting conditioned media. Conditioned media from untransfected HEK293 cells was used as a negative control. (FIG. 24B) Panc1 cells were grown overnight in media with 1% serum with no additions (NT), warfarin (2 μM) or BGB324 (2 μM). Lysates were probed for total Axl (tAxl) and phosphorylated Axl (pAxl). (FIG. 24C) Panc1 cells were grown in the presence of control media, Vitamin K, warfarin or warfarin+Vitamin K. The level of phosphorylated Axl (pAXL, red) was determined by immunofluorescence. (FIG. 24D) Panc1 cells were grown overnight in media with 1% serum with no additions (control), warfarin (1 μM), Gas6 (1.3 nM) or Gas6+warfarin. Lysates were probed for phosphorylated Akt (pAkt) and actin. (FIG. 24E) Lysates from Panc1 tumors harvested from mice treated with control or warfarin were probed for expression of tAxl, pAxl, actin, pAKT, tAKT, and cleaved Parp. (FIG. 24F) The effect of warfarin on cell migration was assessed by a ‘scratch’ assay. Monolayers of the indicted cells were wounded with a pipet tip. The cells were incubated in media containing 2% serum+/−warfarin (2 μM) or media containing 2% serum+Gas6 (1.3 nM)+/−warfarin.
FIGS. 26A-C. […] (FIG. 26A) the expression level of pAxl, Zeb1 and nuclear β-catenin in Panc1 cells in vitro was measured by immunofluorescence under normal culture conditions or after growth on collagen matrix and treatment with TGF-β (20 ng/ml) to induce epithelial to mesenchymal transition, with or without warfarin (2 μM). p-Axl was normalized to total Axl area. (FIG. 26B) Panc1 cells were treated with either SFM, recombinant Gas 6 (100 ng/ml) or Gas6 following pretreatment with 10C9 (mAb anti-Axl). Transition to a mesenchymal phenotype was characterized by changes in vimentin and nuclear Zeb1 expression determined by immunofluoresence. […] (FIG. 26C) Paraffin embedded sections of Panc-1 tumors were analyzed by immunofluorescence for markers of EMT.

The subject of assay [1] is PanIN and PDA tumor growth in KIC mice. In words: Two week in vivo assay in Rgs16::GFP;KIC mice, Rgs16::GFP intensity at P29. Further details: species or system mouse. An excerpt: Fluorescent microscopy and GFP quantification. Pancreatic expression of Rgs16::GFP in GFP-PDA mice was quantified using a Zeiss Lumar microscope. Images were captured using a single-channel camera (Hamamatsu) in 1344×1024 resolution with 1 sec exposure under 48× magnification with 1×1 binning, analog gain=10, and analog offset=2 settings. Pancreatic fields representing the tumor burden (3-4 fields for P15 pups and 5 or more for pups from P23 onwards) of the pancreas were imaged covering up to 50% of the organ surface area. All images were saved in gray-scale 16-bit tiff format. Images were quantified using NIH ImageJ software with background subtraction with a radius of 50 pixels. A variable and tight threshold was set to eliminate residual background. Intensities of all particles with size ≥5 pixels were summed to obtain the total light intensity per image.
Drug dosages. GFP-PDA mice were injected intraperitoneally with gemcitabine (Eli Lilly; Indianapolis, Ind., USA) (12.5 mg/kg/day given 3 days/week, dissolved in PBS), Abraxane (Cellgene; Summit, N.J., USA) (5 mg/kg/day given 2 days/week, diluted in 2% saline solution), BGB324 (BerGenBio, Bergen, Norway) (5 mg/kg/day given 5 days/week, dissolved in a mix of DMSO:ethanol:Kolliphor EL:water with 4:4:8:84 v/v ratio), and warfarin (0.2 mg/kg/day given 5 days/week, dissolved in PBS) according to injection schedules specified below. These doses were validated in prior mouse studies (Dineen et al., 2010; Kutluk Cenik et al., 2013; Ostapoff et al., 2013; Aguilera et al., 2014; Ostapoff et al., 2014). […] To verify tumor progression remains constant over the duration of these experiments, assays of untreated mice were interspersed with drug-treated cohorts, and warfarin-treated pups were the final cohort the inventors tested. Gemcitabine, Abraxane and warfarin were purchased from the UT Southwestern clinical pharmacy; BGB324 was a gift from BerGenBio.
Statistical analysis of GFP expression. GFP values were converted to log10 scale prior to statistical analysis. Graphs and their statistical comparisons were done using Graphpad Prism software with unpaired and two-tailed Student's t test. Significance between groups was indicated as ns (not significant); *p<0.05; **p<0.01; ***p<0.001; ****p<0.0001. Error bars in all the graphs are standard error mean (SEM). See FIGS. 7-8 for additional statistical analysis.
The therapeutic screening strategy was to treat KIC pups between P15-P28 (when PanIN and PDA are in rapid expansion) with anticancer drugs, sacrifice mice at P29, and capture Rgs16::GFP intensity with a dissection fluorescence microscope. Images of the five brightest non-overlapping fields of Rgs16::GFP expression were then collected, representing the regions of greatest tumor burden (FIGS. 17A-C).

[2] abbreviates: tumor lysates, low dose warfarin.
Setting [3] is: tumor sections, low dose warfarin.

Take `CC(=O)CC(c1ccccc1)c1c(O)c2ccccc2oc1=O` (racemic) [Warfarin]: the intratumoral microvessel density entry in the assay with Panc-1 tumors (Endomucin, low dose warfarin) is reported as “reduced”. Further, the “expression of vimentin and E-cadherin in tumors” value in the assay on Panc-1 tumors (immunofluorescence, low dose warfarin) is “reduced expression of vimentin and elevated the expression of E-cadherin”. Besides, in the assay with Panc-1 tumors (setting [2]), the “level of cleaved Parp” value is “increased”; the “level of pAxl and pAkt in tumors” value was “substantially suppressed”. Besides, in the assay on Panc-1 tumors (setting [3]), the “cleaved caspase 3 and tumor necrosis” value was “elevated”; the “expression of phosphorylated histone H3 (proliferation)” value is listed as “decreased”. Also, the primary tumor growth result in the assay with Panc-1 tumors (warfarin 1 mg/L drinking water) is “little effect”. The “effect on PanIN lesions and PDA tumor growth (Rgs16::GFP expression)” value in assay [1] (KIC mice treated P15-P28, i.p., sacrificed P29) was “no effect”. For the same molecule, in assay [1] (P29, untreated 7%), the “mice with at least one field in the lower 1% ile of all untreated fields” value is on record as 19%. The “mice with at least one field of Rgs16::GFP expression in pancreas greater than the upper 95% ile of all untreated fields” value in assay [1] (P29, untreated 14%) is given as 13%.
